Experimental data: ChEMBL document CHEMBL4229518, “New β-lactam - Tetramic acid hybrids show promising antibacterial activities” (Bioorg Med Chem Lett, 2018)
Values after ≈ are worked out from the molar mass of the structure shown. Active and inactive are the calls of the source. No cut-off for these calls is given here.

What was measured:
Bacillus subtilis = experiment: Antimicrobial activity against Bacillus subtilis ATCC 23857 after 18 to 20 hrs by microbroth dilution method; type: functional
Bacillus anthracis = experiment: Antimicrobial activity against Bacillus anthracis Sterne 34F2 after 18 to 20 hrs by microbroth dilution method; type: functional
Bacillus cereus = experiment: Antimicrobial activity against Bacillus cereus ATCC 14579 after 18 to 20 hrs by microbroth dilution method; type: functional
Enterococcus faecalis = experiment: Antimicrobial activity against Enterococcus faecalis ATCC 33186 after 18 to 20 hrs by microbroth dilution method; type: functional
Staphylococcus aureus [1] = experiment: Antimicrobial activity against methicillin-susceptible Staphylococcus aureus ATCC 29213 after 18 to 20 hrs by microbroth dilution method; type: functional
Staphylococcus aureus [2] = experiment: Antimicrobial activity against methicillin-susceptible Staphylococcus aureus NRS70 after 18 to 20 hrs by microbroth dilution method; type: functional
Streptococcus pneumoniae = experiment: Antimicrobial activity against Streptococcus pneumoniae R6 after 18 to 20 hrs by microbroth dilution method; type: functional
Streptococcus pyogenes = experiment: Antimicrobial activity against Streptococcus pyogenes ATCC 700294 after 18 to 20 hrs by microbroth dilution method; type: functional; conditions: M1 GAS
Acinetobacter baumannii = experiment: Antimicrobial activity against Acinetobacter baumannii ATCC 19606 after 18 to 20 hrs by microbroth dilution method; type: functional; conditions: ATCC 19606 = CIP 70.34 = JCM 6841
Enterobacter cloacae = experiment: Antimicrobial activity against Enterobacter cloacae ATCC 13047 after 18 to 20 hrs by microbroth dilution method; type: functional; conditions: subsp. cloacae ATCC 13047
Escherichia coli [3] = experiment: Antimicrobial activity against Escherichia coli BW25113 after 18 to 20 hrs by microbroth dilution method; type: functional
Escherichia coli [4] = experiment: Antimicrobial activity against tolC deficient Escherichia coli JW5503-1 after 18 to 20 hrs by microbroth dilution method; type: functional
Klebsiella pneumoniae [5] = experiment: Antimicrobial activity against Klebsiella pneumoniae ATCC 33495 after 18 to 20 hrs by microbroth dilution method; type: functional
Pseudomonas aeruginosa = experiment: Antimicrobial activity against Pseudomonas aeruginosa PAO1 after 18 to 20 hrs by microbroth dilution method; type: functional
Proteus mirabilis = experiment: Antimicrobial activity against Proteus mirabilis ATCC 25933 after 18 to 20 hrs by microbroth dilution method; type: functional
[6] = test system: Stenotrophomonas maltophilia; experiment: Antimicrobial activity against Stenotrophomonas maltophilia ATCC 700475 after 18 to 20 hrs by microbroth dilution method; type: functional
Staphylococcus aureus [7] = experiment: Potency index, ratio of cefaclor MIC to compound MIC for […] Staphylococcus aureus ATCC 29213; type: functional
Staphylococcus aureus [8] = experiment: Potency index, ratio of […] MIC to compound MIC for […] Staphylococcus aureus ATCC 29213; type: functional
Staphylococcus aureus [9] = experiment: Potency index, ratio of cefaclor MIC to compound MIC for methicillin-resistant Staphylococcus aureus NRS70; type: functional
Staphylococcus aureus [10] = experiment: Potency index, ratio of […] MIC to compound MIC for methicillin-resistant Staphylococcus aureus NRS70; type: functional
Escherichia coli [11] = experiment: Induction of proton motive force collapse in Escherichia coli BW25113 at 100 uM by flow cytometry; type: functional, organism-based
HepG2 = experiment: Cytotoxicity against human HepG2 cells; type: cell-based
Vero = experiment: Cytotoxicity against African green monkey Vero cells; type: cell-based; conditions: Chlorocebus sabaeus
Klebsiella pneumoniae [12] = experiment: Antimicrobial activity against Klebsiella pneumoniae isolate SJ 1 after 18 to 20 hrs by microbroth dilution method; type: functional
Klebsiella pneumoniae [13] = experiment: Antimicrobial activity against Klebsiella pneumoniae isolate SJ 2 after 18 to 20 hrs by microbroth dilution method; type: functional
Klebsiella pneumoniae [14] = experiment: Antimicrobial activity against Klebsiella pneumoniae isolate SJ 3 after 18 to 20 hrs by microbroth dilution method; type: functional
Klebsiella pneumoniae [15] = experiment: Antimicrobial activity against Klebsiella pneumoniae isolate SJ 4 after 18 to 20 hrs by microbroth dilution method; type: functional
Klebsiella pneumoniae [16] = experiment: Antimicrobial activity against Klebsiella pneumoniae isolate SJ 5 after 18 to 20 hrs by microbroth dilution method; type: functional
Escherichia coli [17] = experiment: Antimicrobial activity against Escherichia coli isolate SJ 1 after 18 to 20 hrs by microbroth dilution method; type: functional
Escherichia coli [18] = experiment: Antimicrobial activity against Escherichia coli isolate SJ 2 after 18 to 20 hrs by microbroth dilution method; type: functional
Escherichia coli [19] = experiment: Antimicrobial activity against Escherichia coli isolate SJ 3 after 18 to 20 hrs by microbroth dilution method; type: functional
Escherichia coli [20] = experiment: Antimicrobial activity against Escherichia coli isolate SJ 4 after 18 to 20 hrs by microbroth dilution method; type: functional
Escherichia coli [21] = experiment: Antimicrobial activity against Escherichia coli isolate SJ 5 after 18 to 20 hrs by microbroth dilution method; type: functional
Escherichia coli [22] = experiment: Antimicrobial activity against Escherichia coli isolate SJ 6 after 18 to 20 hrs by microbroth dilution method; type: functional
Escherichia coli [23] = experiment: Antimicrobial activity against Escherichia coli ATCC 35218 expressing TEM-1 beta lactamases after 18 to 20 hrs by microbroth dilution method; type: functional
Escherichia coli [24] = experiment: Antimicrobial activity against Escherichia coli ATCC 25922 after 18 to 20 hrs by microbroth dilution method; type: functional

SMILES	MIC (Bacillus subtilis) [µg/mL]	MIC (Bacillus anthracis) [µg/mL]	MIC (Bacillus cereus) [µg/mL]	MIC (Enterococcus faecalis) [µg/mL]	MIC (Staphylococcus aureus [1]) [µg/mL]	MIC (Staphylococcus aureus [2]) [µg/mL]	MIC (Streptococcus pneumoniae) [µg/mL]	MIC (Streptococcus pyogenes) [µg/mL]	MIC (Acinetobacter baumannii) [µg/mL]	MIC (Enterobacter cloacae) [µg/mL]	MIC (Escherichia coli [3]) [µg/mL]	MIC (Escherichia coli [4]) [µg/mL]	MIC (Klebsiella pneumoniae [5]) [µg/mL]	MIC (Pseudomonas aeruginosa) [µg/mL]	MIC (Proteus mirabilis) [µg/mL]	MIC [6] [µg/mL]	Ratio (Staphylococcus aureus [7])	Ratio (Staphylococcus aureus [8])	Ratio (Staphylococcus aureus [9])	Ratio (Staphylococcus aureus [10])	other results
CC(=O)OCC1=C(C(=O)O)N2C(=O)[C@@H](NC(=O)CCNC(=O)C3=C(O)C(CC(C)C)NC3=O)[C@H]2SC1 (some centres not stated)	3.13 (≈ 5.97 µM)	25 (≈ 47.7 µM)	> 200	200 (≈ 381 µM)	6.25 (≈ 11.9 µM)	6.25 (≈ 11.9 µM)	12.5 (≈ 23.8 µM)	12.5 (≈ 23.8 µM)	> 200	> 200	> 200	> 200	> 200	> 200	200 (≈ 381 µM)	> 200	>=16	>=16	>=16	>=16	–
CO[C@@]1(NC(=O)CCCC(=O)C2=C(O)[C@@H](CCCNC(=N)N)NC2=O)C(=O)N2C(C(=O)O)=C(CSc3nnnn3C)CS[C@@H]21	–	–	–	–	–	–	–	–	> 200	–	6.25 (≈ 9.58 µM)	6.25 (≈ 9.58 µM)	6.25 (≈ 9.58 µM)	> 200	6.25 (≈ 9.58 µM)	–	–	–	–	–	Activity (Escherichia coli [11]): inactive; IC50 (HepG2): > 200 µM; IC50 (Vero): > 200 µM; MIC (Klebsiella pneumoniae [12]): 3.13 µg/mL (≈ 4.8 µM); MIC (Klebsiella pneumoniae [13]): 3.13 µg/mL (≈ 4.8 µM); MIC (Klebsiella pneumoniae [14]): 6.25 µg/mL (≈ 9.58 µM); MIC (Klebsiella pneumoniae [15]): 6.25 µg/mL (≈ 9.58 µM); MIC (Klebsiella pneumoniae [16]): 12.5 µg/mL (≈ 19.2 µM); MIC (Escherichia coli [17]): 3.13 µg/mL (≈ 4.8 µM); MIC (Escherichia coli [18]): 3.13 µg/mL (≈ 4.8 µM); MIC (Escherichia coli [19]): 3.13 µg/mL (≈ 4.8 µM); MIC (Escherichia coli [20]): 25 µg/mL (≈ 38.3 µM); MIC (Escherichia coli [21]): 12.5 µg/mL (≈ 19.2 µM); MIC (Escherichia coli [22]): 100 µg/mL (≈ 153 µM); MIC (Escherichia coli [23]): 3.13 µg/mL (≈ 4.8 µM); MIC (Escherichia coli [24]): 3.13 µg/mL (≈ 4.8 µM)
C=CC1=C(C(=O)O)N2C(=O)[C@@H](NC(=O)CCNC(=O)C3=C(O)C(CC(C)C)NC3=O)[C@H]2SC1 (some centres not stated)	6.25 (≈ 13.1 µM)	6.25 (≈ 13.1 µM)	> 200	> 200	3.13 (≈ 6.54 µM)	3.13 (≈ 6.54 µM)	6.25 (≈ 13.1 µM)	12.5 (≈ 26.1 µM)	> 200	> 200	> 200	> 200	> 200	> 200	100 (≈ 209 µM)	> 200	32	64	32	64	–
CO[C@@]1(NC(=O)CCCC(=O)C2=C(O)[C@@H](CC(C)C)NC2=O)C(=O)N2C(C(=O)O)=C(CSc3nnnn3C)CS[C@@H]21	–	–	–	–	–	–	–	–	> 200	–	50 (≈ 82 µM)	12.5 (≈ 20.5 µM)	100 (≈ 164 µM)	> 200	12.5 (≈ 20.5 µM)	–	–	–	–	–	Activity (Escherichia coli [11]): inactive; MIC (Klebsiella pneumoniae [12]): 12.5 µg/mL (≈ 20.5 µM); MIC (Klebsiella pneumoniae [13]): 50 µg/mL (≈ 82 µM); MIC (Klebsiella pneumoniae [14]): 50 µg/mL (≈ 82 µM); MIC (Klebsiella pneumoniae [15]): > 200 µg/mL; MIC (Klebsiella pneumoniae [16]): 200 µg/mL (≈ 328 µM); MIC (Escherichia coli [17]): 100 µg/mL (≈ 164 µM); MIC (Escherichia coli [18]): 200 µg/mL (≈ 328 µM); MIC (Escherichia coli [19]): 100 µg/mL (≈ 164 µM); MIC (Escherichia coli [20]): > 200 µg/mL; MIC (Escherichia coli [21]): 200 µg/mL (≈ 328 µM); MIC (Escherichia coli [22]): > 200 µg/mL; MIC (Escherichia coli [23]): 50 µg/mL (≈ 82 µM); MIC (Escherichia coli [24]): > 200 µg/mL
